Results on 40 compounds are retold here after patent publication US9487489B2, “Halogen-substituted pyrazole derivatives as pest-control agents” (BAYER CROPSCIENCE AKTIENGESELLSCHAFT, priority 2013, dated 2016).

The nature of series [1]: logP determination by HPLC on a reversed-phase column (C18), EEC Directive 79/831 Annex V.A8. Type of series: physicochemical. The protocol:
(§1) ^a) Note regarding the determination of the logP values and mass detection: The determination of the given logP values was carried out in accordance with EEC Directive 79/831 Annex V.A8 by HPLC (High Performance Liquid Chromatography) on a reversed-phase column (C18). Agilent 1100 LC system; 50*4.6 Zorbax Eclipse Plus C18 1.8 micron; mobile phase A: acetonitrile (0.1% formic acid); mobile phase B: water (0.09% formic acid); linear gradient from 10% acetonitrile to 95% acetonitrile in 4.25 min, then 95% acetonitrile for a further 1.25 min; oven temperature 55° C.; flow rate: 2.0 ml/min. Mass detection is carried out via an Agilend MSD system.
as §1, with “^*)” for “^a)”

Series [2] deals with larvae of the mustard beetle (Phaedon cochleariae). The series is described as follows: Phaedon cochleariae spray test (PHAECO). In kind it is in vivo. To be noted: Chinese cabbage leaf discs, after 7 days. The protocol:
H. Phaedon cochleariae-spray Test (PHAECO)
Solvents: 78.0 parts by weight of acetone
• 1.5 parts by weight of dimethylformamide Emulsifier: alkylaryl polyglycol ether
To produce a suitable preparation of active compound, 1 part by weight of active compound is dissolved using the stated parts by weight of solvent and made up with water comprising an emulsifier concentration of 1000 ppm until the desired concentration is reached. To produce further test concentrations, the preparation is diluted with emulsifier-containing water.
After 7 days, the efficacy in % is determined. 100% means that all of the beetle larvae have been killed; 0% means that none of the beetle larvae have been killed.

Series [3] relates to adult cat fleas (Ctenocephalides felis). The series is described as follows: Ctenocephalides felis in vitro contact test with adult cat fleas (T1). Conditions: after 48 h. The protocol: T1. Ctenocephalides felis—in vitro Contact Tests with Adult Cat Fleas
For the coating of the test tubes, initially 9 mg of active compound are dissolved in 1 ml of acetone p.a. and then diluted with acetone p.a. to the desired concentration. By turning and rocking on an orbital shaker (2 h of rocking rotation at 30 rpm), 250 μl of the solution are distributed homogeneously on the internal walls and the floor of a 25 ml test tube. At 900 ppm active compound solution and 44.7 cm^2 internal surface, an area dose of 5 μg/cm^2 is achieved for homogeneous distribution.
After evaporation of the solvent, the tubes are populated with 5-10 adult cat fleas (Ctenocephalides felis), sealed with a perforated plastic lid and incubated in a horizontal position at room temperature and ambient humidity. After 48 h, the efficacy is determined. To this end, the test tubes are stood upright and the fleas are knocked to the floor of the tube. Fleas which remain motionless on the floor or move in an uncoordinated manner are considered to be dead or moribund.
An efficacy of 100% means that all fleas were dead or moribund. 0% efficacy means that none of the fleas had been damaged.

Where [4] appears, read: HPLC, reversed-phase C18, acetonitrile (0.1% formic acid)/water (0.09% formic acid) gradient.
The mark [5] stands for this setting: HPLC on reversed-phase column (C18), acetonitrile/water with formic acid, EEC Directive 79/831 Annex V.A8.

Regarding `Cn1nc(C(F)(F)C(F)(F)F)c(C(F)(F)F)c1-n1cnc(-c2cccc(C(=O)Nc3ccc(Cl)nc3)c2)n1` [Ie-5], in series [1] (setting [4]), the logP (as a rule, a log measure of how a compound divides between an organic and an aqueous phase) is on record as 4.24. This compound also displayed an efficacy in % in series [2] (application rate 100 g/ha) of 100%.
As for `Cn1nc(C(F)(F)F)c(C#N)c1-n1cc(-c2ccc(Cl)c(C(=O)NC3CC3)c2)cn1` [Ic-30], the logP in series [1] (setting [5]) was 2.97. Also, the efficacy in % in series [2] (application rate 100 g/ha) was 100%.
For `Cn1nc(C(F)(F)C(F)(F)F)c(C(F)(F)F)c1-n1cc(-c2ccc(Cl)c(C(=O)Nc3ccon3)c2)cn1` [Ic-145], the “efficacy (dead or moribund fleas)” value in series [3] (application rate 1 μg/cm^2) and in series [3] (application rate 5 μg/cm^2) was 100% throughout.
In turn, `CC(NC(=O)c1cc(-c2cnn(-c3c(C(F)(F)F)c(C(F)(F)C(F)(F)F)nn3C)c2)ccc1Cl)C1CC1` (stereo not drawn) [Ic-207] had a logP in series [1] (setting [5]) of 4.4.
The compound `Cn1nc(C(F)(F)C(F)(F)F)c(C(F)(F)F)c1-n1cc(-c2cc(C(=O)NC3CC3)c(F)c(S(N)(=O)=O)c2)cn1` [Ic-173] gave an efficacy in % in series [2] (application rate 500 g/ha) of 100%.
Same read-out and setting: the same measure for `Cn1nc(C(F)(F)C(F)(F)F)c(C(F)(F)F)c1-n1cc(-c2cncc(C(=O)NC3(C#N)CC3)n2)cn1` [Ic-179]: 100%.
For the compound `Cn1nc(C(F)(F)C(F)(F)F)c(C(F)(F)F)c1-n1cc(-c2ccc(Cl)c(C(=O)NCc3ncc[nH]3)c2)cn1` [Ic-146], the “efficacy (dead or moribund fleas)” value in series [3] (application rate 1 μg/cm^2) and in series [3] (application rate 5 μg/cm^2) was 80% each time.
Compound `CCN(CC)C(=O)c1cc(-c2cnn(-c3c(C(F)(F)F)c(C(F)(F)C(F)(F)F)nn3C)c2)ccc1S(=O)(=O)NC1CC1` [Ic-197] had a logP in series [1] (setting [5]) of 4.39.
`Cn1nc(C(F)(F)C(F)(F)F)c(C(F)(F)F)c1-n1cnc(-c2cccc(C(=O)NC3(C(N)=S)CC3)c2)n1` [Ie-6] gave a logP in series [1] (setting [4]) of 3.29.
Same read-out and setting: the value for `Cn1nc(C(F)(F)C(F)(F)F)c(C(F)(F)F)c1-n1cnc(-c2cccc(C(=O)NC3CC3)c2)n1` [Ie-3] was 3.50.
As for `CN(C)CCNC(=O)c1cc(-c2cnn(-c3c(C(F)(F)F)c(C(F)(F)C(F)(F)F)nn3C)c2)ccc1Cl` [Ic-138], in series [3] (application rate 5 μg/cm^2), the “efficacy (dead or moribund fleas)” value worked out at 80%.
Turning to `CON=Cc1c(C(F)(F)F)nn(C)c1-n1cc(-c2ccc(Cl)c(C(=O)NC3CC3)c2)cn1` (mixture of isomers) [Ic-51], the logP in series [1] (setting [5]) stood at 3.15. Moreover, in series [2] (application rate 500 g/ha), the efficacy in % is 100%.
`Cn1nc(C(F)(F)C(F)(F)F)c(C(F)(F)F)c1-n1cc(-c2ccc(C(F)(F)F)c(C(=O)NC3(C#N)CC3)c2)cn1` [Ic-203] displayed a logP in series [1] (setting [5]) of 3.88.
Turning to `Cn1nc(C(F)(F)C(F)(F)F)c(C(F)(F)F)c1-n1cc(-c2ccc(Cl)c(C(=O)Nc3nn[nH]n3)c2)cn1` [Ic-144], the “efficacy (dead or moribund fleas)” value in series [3] (application rate 1 μg/cm^2) and in series [3] (application rate 5 μg/cm^2) was 100% each time.
Regarding `Cn1nc(C(F)(F)C(F)(F)F)c(C(F)(F)F)c1-n1cc(-c2ccc(Cl)c(C(=O)Nc3ccc(F)cc3)c2)cn1` [Ic-209], in series [1] (setting [5]), the logP worked out at 4.53.
As to `CN(C(=O)c1cc(-c2cnn(-c3c(C(F)(F)F)c(C(F)(F)C(F)(F)F)nn3C)c2)ccc1Cl)C1CC1` [Ic-199], the “efficacy (dead or moribund fleas)” value in series [3] (application rate 1 μg/cm^2) and in series [3] (application rate 5 μg/cm^2) was 100% each time.
Compound `CSc1c(C(F)(F)C(F)(F)F)nn(C)c1-n1cc(-c2ccc(Cl)c(C(=O)NC3(C#N)CC3)c2)cn1` [Ic-194] registered a logP in series [1] (setting [5]) of 3.56.
As for `Cn1nc(C(F)(F)F)c(C=O)c1-n1cc(-c2ccc(Cl)c(C(=O)NC3CC3)c2)cn1` [Ic-52], the logP in series [1] (setting [5]) is 2.67. The compound further displayed an efficacy in % in series [2] (application rate 500 g/ha) of 100%.
Consider `Cn1nc(C(F)(F)C(F)(F)F)c(C(F)(F)F)c1-n1cnc(-c2ccc(Cl)c(C(=O)NCc3ccccc3)c2)c1` [Ib-1, N-Benzyl-2-chloro-5-{1-[1-methyl-3-(pentafluoroethyl)-4-(trifluoromethyl)-1H-pyrazol-5-yl]-1H-imidazol-4-yl}benzamide], for which, in series [1], the chromatographic logP (as a rule, lipophilicity estimated from chromatographic retention) worked out at 4. This compound also yielded an efficacy in % in series [2] (application rate 100 g/ha) of 83%.
`Cn1nc(C(F)(F)C(F)(F)F)c(C(F)(F)F)c1-n1cnc(-c2ccc(Cl)c(C(=O)NC3CC3)c2)n1` [Ie-2] had a logP in series [1] (setting [4]) of 3.72.
`Cn1nc(C(F)(F)C(F)(F)F)c(C(F)(F)F)c1-n1cc(-c2ccc(Cl)c(C(=O)NC3(C4CCC4)CC3)c2)cn1` [Ic-210] displayed a logP in series [1] (setting [5]) of 4.77.
Regarding `Cn1nc(C(F)(F)F)c(C=O)c1-n1cc(-c2ccc(Cl)c(C(=O)NC3(C#N)CC3)c2)cn1` [Ic-102], in series [1] (setting [5]), the logP is recorded as 2.61.
Consider `Cn1nc(C(F)(F)F)c(C=NO)c1-n1cc(-c2ccc(Cl)c(C(=O)NC3(C#N)CC3)c2)cn1` (mixture of isomers) [Ic-98], for which the logP in series [1] (setting [5]) is reported as 2.42.
In turn, `Cn1nc(C(F)(F)C(F)(F)F)c(C(F)(F)F)c1-n1cc(-c2ccc(C(F)(F)F)c(C(=O)NC3CC3)c2)cn1` [Ic-196] yielded a logP in series [1] (setting [5]) of 3.96.
`CCCN(C(=O)c1cc(-c2cnn(-c3c(C(F)(F)F)c(C(F)(F)C(F)(F)F)nn3C)c2)ccc1Cl)C1(C#N)CC1` [Ic-204]: the logP in series [1] (setting [5]) amounted to 4.56.
For the compound `CCN(C(=O)c1cc(-c2cnn(-c3c(C(F)(F)F)c(C(F)(F)C(F)(F)F)nn3C)c2)ccc1Cl)C1CC1` [Ic-211], the “efficacy (dead or moribund fleas)” value in series [3] (application rate 1 μg/cm^2) and in series [3] (application rate 5 μg/cm^2) was 100% in each case.
With `CCN(C(=O)c1cc(-c2cnn(-c3c(C(F)(F)F)c(C(F)(F)C(F)(F)F)nn3C)c2)ccc1Cl)C1(C#N)CC1` [Ic-208], the logP in series [1] (setting [5]) is 4.33.
In series [1] (setting [5]), `Cn1nc(C(F)(F)C(F)(F)F)c(C(F)(F)F)c1-n1cc(-c2ccc(Cl)c(C(=O)NC3CC3)c2)c(N)n1` [Ic-192] came in with a logP of 3.35. The same compound came in with an efficacy in % in series [2] (application rate 100 g/ha) of 100%.
In series [1] (setting [5]), `CCC(=O)N(C(=O)c1cc(-c2cnn(-c3c(C(F)(F)F)c(C(F)(F)C(F)(F)F)nn3C)c2)ccc1Cl)C1(C#N)CC1` [Ic-205] gave a logP of 4.63.
`Cn1nc(C(F)(F)F)c(CCl)c1-n1cc(-c2ccc(Cl)c(C(=O)NC3CC3)c2)cn1` [Ic-114] displayed a logP in series [1] (setting [5]) of 3.12.
`Cn1nc(C(F)(F)F)c(C=NO)c1-n1cc(-c2ccc(Cl)c(C(=O)NC3CC3)c2)cn1` (mixture of isomers) [Ic-50] came in with a logP in series [1] (setting [5]) of 2.47.
`Cn1nc(C(F)(F)C(F)(F)F)c(C(F)(F)F)c1-n1cc(-c2cncc(C(=O)NC3CC3)n2)cn1` [Ic-178] yielded an efficacy in % in series [2] (application rate 100 g/ha) of 100%.
Regarding `Cn1nc(C(F)(F)C(F)(F)F)c(C(F)(F)F)c1-n1cc(-c2cc(C(=O)NC3(C#N)CC3)c(Cl)cc2F)cn1` [Ic-93], the efficacy in % in series [2] (application rate 500 g/ha) is 100%.
In series [1] (setting [5]), `Cn1nc(C(F)(F)F)c(C(=O)NC2CC2)c1-n1cc(-c2ccc(Cl)c(C(=O)NC3CC3)c2)cn1` [Ic-100] showed a logP of 2.31.
In series [1] (setting [5]), `Cc1c(-c2ccc(Cl)c(C(=O)NC3CC3)c2)c(C(F)(F)F)nn1-c1c(C(F)(F)F)c(C(F)(F)C(F)(F)F)nn1C` [Ic-5] came in with a logP of 4.60. In series [2] (application rate 100 g/ha), this compound returned an efficacy in % of 83%.
As to `Cn1nc(C(F)(F)C(F)(F)F)c(C(F)(F)F)c1-n1cc(-c2ccc(Cl)c(C(=O)NC3(C#N)CC3)c2)c(N)n1` [Ic-191], the logP in series [1] (setting [5]) amounted to 3.3. In addition, the efficacy in % in series [2] (application rate 100 g/ha) amounted to 100%.
As for `C=CCN(C(=O)c1cc(-c2cnn(-c3c(C(F)(F)F)c(C(F)(F)C(F)(F)F)nn3C)c2)ccc1Cl)C1(C#N)CC1` [Ic-206], in series [1] (setting [5]), the logP was found to be 4.44.
For the compound `Cn1nc(C(F)(F)C(F)(F)F)c(C(F)(F)F)c1-n1cnc(-c2cccc(C(=O)NC3(C#N)CC3)c2)n1` [Ie-7], the logP in series [1] (setting [4]) is 3.46.
In series [1] (setting [5]), `Cn1nc(C(F)(F)F)c(C(=O)NC2CC2)c1-n1cc(-c2ccc(Cl)c(C(=O)NC3(C#N)CC3)c2)cn1` [Ic-101] displayed a logP of 2.32.
For the compound `Cn1nc(C(F)(F)C(F)(F)F)c(C(F)(F)F)c1-n1cnc(-c2cccc(C(=O)NCc3cccs3)c2)n1` [Ie-4], in series [1] (setting [4]), the logP amounted to 4.05. In series [2] (application rate 100 g/ha), this compound displayed an efficacy in % of 100%.
